{
  "source": "patent US8476408B2",
  "about": "“Unacylated ghrelin and analogs as therapeutic agents for vascular remodeling in diabetic patients and treatment of cardiovascular disease” (Alize Pharma SAS, priority 2008, dated 2013)",
  "key": {"cardiomyocytes": {"test_system": "cardiomyocytes", "settings": "Ref. 8; cited from earlier work"}, "CAC [1]": {"test_system": "CAC", "test": "Detection of ROS in CAC (DCF-DA assay, FACS)", "format": "cell-based, human", "settings": "for baseline level of ROS production: compared to untreated cells, FIG. 1B, 1E", "method": "Peripheral-blood mononuclear cells (PB-MNC) isolated by Fycoll Histopaque 1077 (Sigma) were resuspended in 20% FBS 199 Medium and plated on fibronectin-coated dishes (Biocoat, Becton Dickinson Labware) as described by Hill et al. (Ref. 19). Human UAG studies were performed on CAC recovered from normal donors and diabetic patients. The purity of sorted cells was assessed by FACS analysis (Ref. 20). For experiments, the isolated CAC were cultured under 5% CO2 at 37° C. for 4 days on 20 μg/ml fibronectin-coated dishes in EGM-2 medium containing 10% FBS, hydrocortisone, human Fibroblast Growth Factor, Vascular Endothelial Growth Factor, Insulin Growth Factor 1, ascorbic acid, human Epidermal Growth Factor, gentamicin and amphotericin-B (Cambrex, Walkersville, Md., USA) alone or in combination with 1 μM UAG and 1.2 mg/ml AGE. In selected experiments, isolated CAC were cultured in EBM-2 medium (Cambrex, Walkersville, Md., USA) supplemented with 10 ng/ml of IL-3. FACS was used to analyze their phenotype (anti-CD45, anti-CD31, anti-CD105, anti-CD14 antibodies were used) (Ref. 22).\nDetection of ROS—DCF-DA (0.5 μM final concentration) was added to CAC in the indicated culture conditions. At the indicated times, the cells were subjected to FACS analysis and processed as previously described (Ret. 22). H2O2 was used as positive control."}, "human arteries": {"test_system": "human arteries", "settings": "Ref. 35; cited from earlier work"}, "[2]": {"test_system": "human umbilical vein endothelial cells (HUVECs)", "settings": "Ref. 5; cited from earlier work"}, "[3]": {"test_system": "human microvascular endothelial cells (HMVECs)", "settings": "Ref. 4; cited from earlier work"}, "CAC [4]": {"test_system": "CAC", "test": "CAC mobilization assay in healthy subjects and diabetic patients", "format": "in vivo, human", "settings": "diabetic patients compared to normal subjects, 6 hours treatment; FIG. 3B", "method": "All the subjects underwent the following testing session: • UAG (3.0 μg/kg/h iv. as infusion for 12 h from 0 to 12 hours); • isotonic saline (infusion from 0 to 12 hours).\nAll tests were performed starting at 08.30-09.00 a.m. after overnight fasting, 30 minutes after an indwelling catheter had been placed into a forearm vein by slow infusion of isotonic saline. Blood samples were taken at 0 h, 6 h and 12 h.\nMobilization assay—CAC recovered from healthy subjects and diabetic patients, treated with UAG or saline for 6 h and 12 h, were evaluated. Total number of MNC was counted by 3 independent investigators. The percentage of CAC was calculated by comparing CAC obtained from diabetic patients and healthy donors, treated for 6 h and 12 h with UAG, AG or saline, to CAC recovered at time 0."}, "HIT-T15 β-cells": {"test_system": "HIT-T15 β-cells", "test": "Survival of cytokine-treated HIT-T15 β-cells (MTT)", "format": "cell-based", "settings": "cytokines (IFN-γ/TNF-α/IL-1β), peptides 1 nM to 100 nM", "method": "The survival effect of UAG (6-13) (SEQ ID NO: 6), UAG (8-13) (SEQ ID NO: 7), UAG (8-12) (SEQ ID NO: 8), UAG (8-11) (SEQ ID NO: 12), UAG (9-12) (SEQ ID NO: 9) and UAG (9-11) (SEQ ID NO: 10) was assessed in cytokine-treated HIT-T15 β-cells. […] The protective effects of peptides UAG (8-13) (SEQ ID NO: 7) and UAG (8-12) (SEQ ID NO: 8) were found similar to those of UAG (1-14) (SEQ ID NO: 2) and UAG (1-18) (SEQ ID NO: 3). A peptide made of the inverse sequence of UAG (1-14) (SEQ ID NO: 2) and named UAG (14-1) (SEQ ID NO: 11), was used as negative control for these experiments. […] These effects were however lower than those of UAG (6-13) (SEQ ID NO: 6)."}, "CAC membranes": {"test_system": "CAC membranes", "test": "Competition binding with [125I-Tyr4]-UAG on CAC membranes", "design": "species or system human", "settings": "100 nM unlabelled competitor, radioligand 0.25 nM; FIG. 5A", "text": "The specific binding of [^125I-Tyr^4]-UAG (calculated as difference between binding in the absence, control, and in the presence of UAG) represented about 75% of the control value (P<0.001) and was detected either on fresh (0.25 and 0.26 fmol) or frozen-thawed (0.20 and 0.33 fmol) CAC membranes from two different cell preparations."}, "cloned cells": {"test_system": "cloned cells", "settings": "cited from earlier work"}, "GH secretion": {"test_system": "GH secretion", "settings": "compared with Ghrelin-28; cited from earlier work"}},
  "note": "Where no end group is shown, it is not given here. The star is where a group is joined. Octanoyl = CCCCCCCC(=O)*",
  "data": [
    {"substance": "AG: 28 amino acid peptide with an n-octanoyl modification on the Ser3 residue; endogenous ligand of GHSR (GSS(Octanoyl)FLSPEHQRVQQRKESKKPPAKLQPR; listed as Homo sapiens) [reference compound]", "values": [
      {"measurement": "experimentally-induced cell death", "setting": "cardiomyocytes", "result": "inhibit experimentally-induced cell death"},
      {"measurement": "baseline level of ROS production", "setting": "CAC [1]", "result": "A protective effect failed to be detected"},
      {"measurement": "vasodilator action", "setting": "human arteries", "result": "vasodilator actions"},
      {"measurement": "basal and TNF-α-induced chemotactic cytokine production and mononuclear cell adhesion", "setting": "[2]", "result": "inhibit basal and TNF-α-induced chemotactic cytokine production and mononuclear cell adhesion"},
      {"measurement": "cell proliferation, migration, in vitro angiogenesis and ERK2 phosphorylation", "setting": "[3]", "result": "significantly increased cell proliferation, migration, in vitro angiogenesis and ERK2 phosphorylation"},
      {"measurement": "number of recovered CAC", "setting": "CAC [4]", "result": "No statistical differences"}
    ]},
    {"substance": "EHQRVQ [UAG (8-13)]", "values": [
      {"measurement": "survival effect on cytokine-induced cell death", "setting": "HIT-T15 β-cells", "result": "significant protective effect at all the concentrations examined"}
    ]},
    {"substance": "GSSFLSPEHQRVQQ [UAG (1-14)]", "values": [
      {"measurement": "survival effect on cytokine-induced cell death", "setting": "HIT-T15 β-cells", "result": "similar"}
    ]},
    {"substance": "GSSFLSPEHQRVQQRKES [UAG (1-18)]", "values": [
      {"measurement": "survival effect on cytokine-induced cell death", "setting": "HIT-T15 β-cells", "result": "similar"}
    ]},
    {"substance": "Glu-His-Gln-Arg-Val (EHQRV; listed as Homo sapiens) [UAG (8-12)]", "values": [
      {"measurement": "survival effect on cytokine-induced cell death", "setting": "HIT-T15 β-cells", "result": "significant, although reduced protection, only at 10 nM and 100 nM"}
    ]},
    {"substance": "Ser-Pro-Glu-His-Gln-Arg-Val-Gln (SPEHQRVQ; not fully specified (C-terminus); printed as Ser-Pro-Glu-His-Gln-Arg-Val-Gln; listed as Homo sapiens) [UAG (6-13)]", "values": [
      {"measurement": "survival effect on cytokine-induced cell death", "setting": "HIT-T15 β-cells", "result": "potently inhibited cytokine-induced cell death"},
      {"measurement": "inhibition of binding of [125I-Tyr4]-UAG to CAC membranes", "setting": "CAC membranes", "result": "inhibited"},
      {"measurement": "level of ROS production in AGE-cultured cells", "setting": "CAC [1]; AGE-cultured CAC, FIG. 1C, 1F", "result": "reduced"},
      {"measurement": "baseline level of ROS production", "setting": "CAC [1]", "result": "also reduces the baseline level of ROS production"}
    ]},
    {"substance": "UAG (8-11): fragment of unacylated ghrelin, residues 8 to 11 of SEQ ID NO: 1 (EHQR; listed as Homo sapiens)", "values": [
      {"measurement": "survival effect on cytokine-induced cell death", "setting": "HIT-T15 β-cells", "result": "significant survival effect only at 100 nM"}
    ]},
    {"substance": "UAG (9-11): fragment of unacylated ghrelin, residues 9 to 11 of SEQ ID NO: 1 (HQR)", "values": [
      {"measurement": "survival effect on cytokine-induced cell death", "setting": "HIT-T15 β-cells", "result": "no significant effect at both concentrations tested"}
    ]},
    {"substance": "UAG (9-12): fragment of unacylated ghrelin, residues 9 to 12 of SEQ ID NO: 1 (HQRV; listed as Homo sapiens)", "values": [
      {"measurement": "survival effect on cytokine-induced cell death", "setting": "HIT-T15 β-cells", "result": "significantly increased cell survival at both the concentrations tested"}
    ]},
    {"substance": "des Gln-14 Ghrelin: isoform of ghrelin-28, a 27 amino acid peptide possessing serine 3 modification by n-octanoic acid (GSS(Octanoyl)FLSPEHQRVQRKESKKPPAKLQPR; listed as Homo sapiens)", "values": [
      {"measurement": "Ca2+ fluxes", "setting": "cloned cells", "result": "elicits Ca^2+ fluxes in cloned cells"},
      {"measurement": "GH secretion", "setting": "GH secretion", "result": "induces GH secretion with similar potency as Ghrelin-28"}
    ]}
  ]
}
